The values that follow come from patent publication US12644099B2, “Methods for making T cell compositions” (2seventy bio, Inc., priority 2014, dated 2026).

Each structure is given as a SMILES string. “Also recorded” adds a separate entry of the source.

The test system of assay [1] is T cells. Nature of the assay: CD62L expression on T cells treated with MK-2206. Format: cell-based. As to the method:
The purpose of this experiment was to determine the effect of Akt inhibitors on T cell markers for T cell potency. The impact of MK-2206 (Selleckchem) on T cell potency was assessed by measuring CD62L expression in the T cell cultures manufactured in Example 1. Mouse models have shown that CD62L expression identifies potent T cells; T cells with greater anti-tumor efficacy after adoptive transfer. […] FIG. 2. A pairwise T test was performed on all day seven cultures (each concentration of MK-2206 was compared to 0 μM MK-2206: *p<0.05, **p<0.01).

The subject of assay [2] is T cells. The assay is described as follows: T cell proliferation (CellTrace Violet dilution, flow cytometry) of PBMC-derived T cells cultured with AKT inhibitor. Format: cell-based. As to the method:
The purpose of this experiment was to determine the effect of Akt inhibitors on T cell proliferation. The impact of MK-2206 (Selleckchem) on T cell proliferation was assessed by measuring T cell division. Peripheral blood mononuclear cells (PBMC) are a heterogeneous cellular population containing T cells. PBMC were harvested from normal donors and labeled with a fluorescent dye (CellTrace® Violet, Molecular Probes), whose intensity is progressively diluted by a factor of two with each cell division. The labeled PBMCs were used as a source of cells for T cell expansion. […] The impact of MK-2206 on cell division was assayed by evaluating CellTrace Violet dilution with flow cytometry after the addition of 0.025 μM, 0.074 μM, 0.222 μM, 0.67 μM, or 2.0 μM, MK-2206 to the T cultures at day 0. […] A pairwise t test was performed on all day seven cultures; (each concentration of MK-2206 was compared to 0 μM MK-2206: the cultures were not statistically different at the p≤0.05 level).
For orientation: In flow cytometry, cells or beads pass a laser one at a time.

For a further assay, the system named is anti-BCMA CAR T cells. Nature of the assay: CD62L expression on anti-BCMA CAR T cells by flow cytometry at the end of culture with inhibitor. Format: cell-based. As to conditions: ten days of culture with IL-2 and optimized dose of inhibitor; three normal donors. The procedure: CAR T cells were cultured with either MK-2206 or triciribine phosphate—TCN (AKT inhibitors) or ZSTK474 (PI3K inhibitor). CAR T cells specific for B cell maturation antigen (BCMA) were used in these set of experiments. CAR T cell cultures were performed using a system directly scalable to large clinical manufacturing processes. […] 2×10^8 transducing units of lentivirus encoding anti-BCMA CARs were added one day after culture initiation. […] At the end of culture, the anti-BCMA CAR T cells were interrogated for phenotype. Expression of CD62L on anti-BCMA CAR T cells was assessed by flow cytometry at the end of culture. Anti-BCMA CAR T cells were specifically identified using recombinant human BCMA-IgG Fc conjugated to PE. CD62L expression was determined with a co-stain using an antibody specific to CD62L. […] (FIG. 3).

A further assay relates to Daudi tumor. The assay is described as follows: Anti-tumor activity of cultured anti-BCMA CAR T cells in aggressive Daudi tumor model. Type of assay: in vivo. From the text:
Daudi tumor cells express a low level of BCMA protein and can be effectively treated using anti-BCMA CAR T cells.

The subject of the next assay is RPMI-8226. Nature of the assay: Persistence of anti-BCMA CAR T cells: RPMI-8226 tumor rechallenge. Type of assay: in vivo, mice. As to conditions: rechallenged 13 days later with RPMI-8226 on the opposite flank after complete regression.
Assay [3] has as its system multiple myeloma tumors (RPMI-8226). The assay is described as follows: Anti-tumor activity of cultured anti-BCMA CAR T cells in sub cutaneous multiple myeloma tumor model. Format: in vivo, mice. As to conditions: 100 mm^3 sub cutaneous RPMI-8226 tumors; 1×10^6 CAR-positive cells infused. The procedure: Anti-BCMA CAR T cells treated with MK-2206, TCN, or ZSTK474 as described in Example 3 were tested to evaluate whether increased CD62L expression was associated with increased anti-tumor activity. […] Animals with 100 mm^3 sub cutaneous multiple myeloma tumors (RPMI-8226) were infused with equivalent CAR T cell doses (1×10^6 CAR-positive cells).

In the case of `NC1(c2ccc(-c3nc4ccn5c(=O)[nH]nc5c4cc3-c3ccccc3)cc2)CCC1` [MK-2206], the “CD62L expression on T cells compared to no treatment control” value in the assay with T cells [1] (seven days of culture in the presence of IL-2, all concentrations tested) is “significantly increases CD62L expression at all concentrations; also recorded: significant higher levels of CD62L expression”; in the assay on T cells [1] (three days of culture with MK-2206) it was “not substantially different”. Also, in the assay with T cells [2] (seven days of culture, 0.025-2.0 μM MK-2206 with IL-2, pairwise t test p≤0.05), the “T cell division / proliferation compared to vehicle or non-treated controls” value is “no statistically significant differences in T cell division; also recorded: not substantially different”. In addition, the “T cell division / proliferation compared to no treatment control” value in the assay with T cells [2] (three days of culture, 0.025-2.0 μM MK-2206 with IL-2, CD3 and CD28 antibodies) is on record as “did not substantially decrease T cell division; also recorded: only slightly decreased”. Moreover, the “CD62L expression on anti-BCMA CAR T cells compared to cultures with IL-2 alone” value with anti-BCMA CAR T cells is listed as “significantly higher CD62L expression”. Moreover, the “anti-tumor activity (Daudi tumor progression) of anti-BCMA CAR T cells cultured with the agent” value in the assay on Daudi tumor was “complete tumor regression”.
As to `FC(F)c1nc2ccccc2n1-c1nc(N2CCOCC2)nc(N2CCOCC2)n1` [ZSTK474], the “tumor outgrowth / engraftment after rechallenge in animals treated with anti-BCMA CAR T cells cultured with the agent” value with RPMI-8226 was “none of the animals treated with ZSTK474-cultured anti-BCMA CAR T cells had any evidence of tumor engraftment”. Moreover, the “CD62L expression on anti-BCMA CAR T cells compared to cultures with IL-2 alone” value in the assay with anti-BCMA CAR T cells is recorded as “significantly higher CD62L expression”. Moreover, in the assay on Daudi tumor, the “anti-tumor activity (Daudi tumor progression) of anti-BCMA CAR T cells cultured with the agent” value is on record as “complete tumor regression”.
For the compound `CN1N=C(N)c2cn([C@@H]3O[C@H](COP(=O)(O)O)[C@@H](O)[C@H]3O)c3ncnc1c23` [TCN, triciribine phosphate], the “CD62L expression on anti-BCMA CAR T cells compared to cultures with IL-2 alone” value with anti-BCMA CAR T cells was “not”. For the same compound, the “anti-tumor activity of anti-BCMA CAR T cells cultured with the agent” value in assay [3] is recorded as “did not show an anti-tumor response; also recorded: completely abolished any anti-tumor responses”.
